As usually defined, the EC50 is the concentration at which the effect is half-maximal.

These results are taken from patent US9796733B2, “Imidazo-pyrazine derivatives useful as soluble guanylate cyclase activators” (Merck Sharp & Dohme Corp., priority 2014, dated 2017).

For this assay, the target named is T1, sGC α1/β1 heterodimer (Homo sapiens, UniProt Q02108+Q02153).
T1 construct: expressed in transfected cells; host or cells: CHO-K1 (clone #7, CHO-K1/sGC)
T1 sequence (Q02108 1-690): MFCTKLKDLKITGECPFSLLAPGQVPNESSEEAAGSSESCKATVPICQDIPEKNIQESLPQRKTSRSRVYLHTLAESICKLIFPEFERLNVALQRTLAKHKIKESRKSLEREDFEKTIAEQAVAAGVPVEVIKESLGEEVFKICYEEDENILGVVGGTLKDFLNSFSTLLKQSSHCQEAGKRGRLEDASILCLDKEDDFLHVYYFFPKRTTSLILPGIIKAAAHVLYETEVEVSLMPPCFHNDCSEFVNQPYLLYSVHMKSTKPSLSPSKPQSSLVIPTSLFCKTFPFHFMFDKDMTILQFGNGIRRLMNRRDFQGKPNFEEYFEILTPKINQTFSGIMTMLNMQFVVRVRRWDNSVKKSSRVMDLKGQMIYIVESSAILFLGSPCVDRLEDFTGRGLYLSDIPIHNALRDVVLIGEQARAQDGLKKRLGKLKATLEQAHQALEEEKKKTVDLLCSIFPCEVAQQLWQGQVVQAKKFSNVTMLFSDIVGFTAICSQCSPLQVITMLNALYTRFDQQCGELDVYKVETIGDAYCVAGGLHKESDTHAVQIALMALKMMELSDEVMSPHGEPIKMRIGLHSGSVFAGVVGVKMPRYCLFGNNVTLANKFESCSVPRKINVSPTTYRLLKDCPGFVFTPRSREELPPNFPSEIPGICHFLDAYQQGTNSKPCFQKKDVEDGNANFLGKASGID
T1 sequence (Q02153 1-619): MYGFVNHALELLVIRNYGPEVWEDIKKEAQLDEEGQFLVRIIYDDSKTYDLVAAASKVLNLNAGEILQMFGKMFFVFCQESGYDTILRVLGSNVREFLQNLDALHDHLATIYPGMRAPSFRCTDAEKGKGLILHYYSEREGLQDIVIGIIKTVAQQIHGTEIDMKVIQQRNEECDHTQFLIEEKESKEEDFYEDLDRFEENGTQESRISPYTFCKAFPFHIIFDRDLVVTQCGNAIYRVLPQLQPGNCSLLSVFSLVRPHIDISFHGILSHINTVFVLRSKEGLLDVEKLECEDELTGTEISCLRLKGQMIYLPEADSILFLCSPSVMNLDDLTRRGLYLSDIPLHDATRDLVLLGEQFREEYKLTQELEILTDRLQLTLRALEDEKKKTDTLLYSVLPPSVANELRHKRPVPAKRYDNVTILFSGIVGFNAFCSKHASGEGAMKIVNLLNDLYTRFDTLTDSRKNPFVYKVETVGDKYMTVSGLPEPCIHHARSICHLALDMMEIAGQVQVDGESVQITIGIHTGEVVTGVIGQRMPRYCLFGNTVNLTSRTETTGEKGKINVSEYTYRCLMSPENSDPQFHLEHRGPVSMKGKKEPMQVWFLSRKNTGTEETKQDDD
The assay can be described thus: Cell-based sGC functional assay (CASA assay): cGMP generation in CHO-K1/sGC cells, HTRF detection. The following applies: for Emax: CHO-K1, percent activation relative to standard Compound A in CHO-K1/sGC cells, read-out: % Act.; for EC50: inflection point (IP) of cGMP generation in CHO-K1/sGC cells, 4P fit, activity expressed as percentage of Compound A. An outline of the steps: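 cGMP was quantified by HTRF after 1 hr, 37° C exposure of thawed CHO-K1 cells expressing sGC α1/β1 to compound, with or without 1 μM DETA-NO. IBMX (0.5 mM) blocked cGMP breakdown, and DMSO was 2.5% final. Percent of standard Compound A's maximal cGMP was fitted (4P) for inflection point.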

Consider `CC1(c2ccc(Cl)cc2)C(=O)Nc2nc(-c3cn4ccnc4c(CCCC(F)(F)F)n3)nc(N)c21` (centres unmarked) [Example 206A, 4-amino-5-(4-chlorophenyl)-5-methyl-2-(8-(4,4,4-trifluorobutyl)imidazo[1,2-a]pyrazin-6-yl)-5H-pyrrolo[2,3-d]pyrimidin-6(7H)-one], for which the Emax is 116% and the EC50 was found to be 21 nM.

Regarding `COc1ccc(C2(C)C(=O)Nc3nc(-c4cn5ccnc5c(CCCC(F)(F)F)n4)nc(N)c32)nc1` (centres unmarked) [Example 212B, 4-amino-5-(5-methoxypyridin-2-yl)-5-methyl-2-(8-(4,4,4-trifluorobutyl)imidazo[1,2-a]pyrazin-6-yl)-5H-pyrrolo[2,3-d]pyrimidin-6(7H)-one], the Emax came to 83% and the EC50 worked out at 87 nM.

Take `CCOc1ccc(C2(C)C(=O)Nc3nc(-c4cn5ccnc5c(CCC(F)(F)C(F)(F)F)n4)nc(N)c32)nc1` (centres unmarked) [Example 224A, 4-amino-5-(5-ethoxypyridin-2-yl)-5-methyl-2-(8-(3,3,4,4,4-pentafluorobutyl)imidazo [1,2-a]pyrazin-6-yl)-5H-pyrrolo[2,3-d]pyrimidin-6(7H)-one]: the Emax was determined as 77% and the EC50 amounted to 153 nM.

Take `CC1(c2ccccn2)C(=O)Nc2nc(-c3cn4ccnc4c(CCC(F)(F)C(F)(F)F)n3)nc(N)c21` (centres unmarked) [Example 226A, 4-amino-5-methyl-2-(8-(3,3,4,4,4-pentafluorobutyl)imidazo [1,2-a]pyrazin-6-yl)-5-(pyridin-2-yl)-5H-pyrrolo[2,3-d]pyrimidin-6(7H)-one]: the Emax was 124% and the EC50 came to 287 nM.

For the compound `CC1(c2ccc(C3CC3)cn2)C(=O)Nc2nc(-c3cn4ccnc4c(CCC(F)(F)C(F)(F)F)n3)nc(N)c21` (centres unmarked) [Example 227B, 4-amino-5-(5-cyclopropylpyridin-2-yl)-5-methyl-2-(8-(3,3,4,4,4-pentafluorobutyl)imidazo [1,2-a]pyrazin-6-yl)-5H-pyrrolo[2,3-d]pyrimidin-6(7H)-one], the Emax was 111% and it took 249 nM to reach a half-maximal effect (EC50).

With `COc1ccc(C2(C)C(=O)Nc3nc(-c4cn5ccnc5c(CCC(F)(F)C(F)(F)F)n4)nc(N)c32)cc1` (centres unmarked) [Example 229B, 4-amino-5-(4-methoxyphenyl)-5-methyl-2-(8-(3,3,4,4,4-pentafluorobutyl)imidazo [1,2-a]pyrazin-6-yl)-5H-pyrrolo[2,3-d]pyrimidin-6(7H)-one], the Emax amounted to 122% and the EC50 turned out to be 26 nM.

With `Cc1ccc(C2(C)C(=O)Nc3nc(-c4cn5ccnc5c(CCC(F)(F)C(F)(F)F)n4)nc(N)c32)cc1` (centres unmarked) [Example 230B, 4-amino-5-methyl-2-(8-(3,3,4,4,4-pentafluorobutyl)imidazo [1,2-a]pyrazin-6-yl)-5-(p-tolyl)-5H-pyrrolo[2,3-d]pyrimidin-6(7H)-one], the Emax came to 117% and the EC50 was determined as 32 nM.

Turning to `COc1ccc(C2(C)C(=O)Nc3nc(-c4cn5ccnc5c(CCC(F)(F)C(F)(F)F)n4)nc(N)c32)cn1` (centres unmarked) [Example 236B, 4-amino-5-(6-methoxypyridin-3-yl)-5-methyl-2-(8-(3,3,4,4,4-pentafluorobutyl)imidazo [1,2-a]pyrazin-6-yl)-5H-pyrrolo[2,3-d]pyrimidin-6(7H)-one], the Emax is 91% and the midpoint of the response, the EC50, lay at 35 nM.

For the compound `CC1(c2ccc(C(F)(F)F)cc2)C(=O)Nc2nc(-c3cn4ccnc4c(CCC(F)(F)C(F)(F)F)n3)nc(N)c21` (centres unmarked) [Example 237B, 4-amino-5-methyl-2-(8-(3,3,4,4,4-pentafluorobutyl)imidazo [1,2-a]pyrazin-6-yl)-5-(4-(trifluoromethyl)phenyl)-5H-pyrrolo[2,3-d]pyrimidin-6(7H)-one], the Emax came to 119% and a half-maximal response (EC50) required 53 nM.

For the compound `CC(C)Oc1ccc(C2(C)C(=O)Nc3nc(-c4cn5ccnc5c(CCC(F)(F)C(F)(F)F)n4)nc(N)c32)cn1` (centres unmarked) [Example 241B, 4-amino-5-(6-isopropoxypyridin-3-yl)-5-methyl-2-(8-(3,3,4,4,4-pentafluorobutyl)imidazo [1,2-a]pyrazin-6-yl)-5H-pyrrolo[2,3-d]pyrimidin-6(7H)-one], the Emax amounted to 99% and a half-maximal effect (EC50) was put at 58 nM.

Regarding `CCc1ccc(C2(C)C(=O)Nc3nc(-c4cn5ccnc5c(CCC(F)(F)C(F)(F)F)n4)nc(N)c32)nc1` (centres unmarked) [Example 242B, 4-amino-5-(5-ethylpyridin-2-yl)-5-methyl-2-(8-(3,3,4,4,4-pentafluorobutyl)imidazo [1,2-a]pyrazin-6-yl)-5H-pyrrolo[2,3-d]pyrimidin-6(7H)-one], the Emax came out at 133% and it took 127 nM to reach a half-maximal effect (EC50).

For the compound `COc1ccc(C2(C)C(=O)Nc3nc(-c4cn5ccnc5c(CCC(F)(F)C(F)(F)F)n4)nc(N)c32)nc1` (centres unmarked) [Example 248B, 4-amino-5-(5-methoxypyridin-2-yl)-5-methyl-2-(8-(3,3,4,4,4-pentafluorobutyl)imidazo [12-a]pyrazin-6-yl)-5H-pyrrolo[2,3-d]pyrimidin-6(7H)-one], the Emax worked out at 88% and the EC50 is 82 nM.

As for `Cc1ccc(C2(C)C(=O)Nc3nc(-c4cn5ccnc5c(CCC(F)(F)C(F)(F)F)n4)nc(N)c32)nn1` (centres unmarked) [Example 252B, 4-amino-5-methyl-5-(6-methylpyridazin-3-yl)-2-(8-(3,3,4,4,4-pentafluorobutyl)imidazo [1,2-a]pyrazin-6-yl)-5H-pyrrolo[2,3-d]pyrimidin-6(7H)-one], the Emax was found to be 121% and the EC50 stood at 175 nM.

For `CC1(c2ccccc2)C(=O)Nc2nc(-c3cn4c(Cl)cnc4c(CCC(F)(F)C(F)(F)F)n3)nc(N)c21` (centres unmarked) [Example 256B, 4-amino-2-(3-chloro-8-(3,3,4,4,4-pentafluorobutyl)imidazo [1,2-a]pyrazin-6-yl)-5-methyl-5-phenyl-5H-pyrrolo[2,3-d]pyrimidin-6(7H)-one], the Emax was found to be 86% and the EC50 came out at 24 nM.

Consider `CC1(C)C(=O)Nc2nc(-c3cn4c(Cl)cnc4c(CCC(F)(F)C(F)(F)F)n3)nc(N)c21` [Example 257, 4-amino-2-(3-chloro-8-(3,3,4,4,4-pentafluorobutyl)imidazo [1,2-a]pyrazin-6-yl)-5,5-dimethyl-5H-pyrrolo[2,3-d]pyrimidin-6(7H)-one], for which the Emax is 146% and the EC50 amounted to 614 nM.

Turning to `CC1(c2ccc(F)cc2)C(=O)Nc2nc(-c3cn4c(Cl)cnc4c(CCC(F)(F)F)n3)nc(N)c21` (centres unmarked) [Example 258A, 4-amino-2-(3-chloro-8-(3,3,3-trifluoropropyl)imidazo[1,2-a]pyrazin-6-yl)-5-(4-fluorophenyl)-5-methyl-5H-pyrrolo[2,3-d]pyrimidin-6(7H)-one], the Emax came to 116% and the EC50 came out at 89 nM.

For `CC1(c2ccccc2)C(=O)Nc2nc(-c3cn4c(Cl)cnc4c(CCC(F)(F)F)n3)nc(N)c21` (centres unmarked) [Example 259B, 4-amino-2-(3-chloro-8-(3,3,3-trifluoropropyl)imidazo[1,2-a]pyrazin-6-yl)-5-methyl-5-phenyl-5H-pyrrolo[2,3-d]pyrimidin-6(7H)-one], the Emax was determined as 99% and the EC50 was 112 nM.

Regarding `CC1(c2ccc(F)cc2)C(=O)Nc2nc(-c3cn4c(Cc5ccccc5)cnc4c(CCC(F)(F)C(F)(F)F)n3)nc(N)c21` (centres unmarked) [Example 260A, 4-Amino-2-(3-benzyl-8-(3,3,4,4,4-pentafluorobutyl)imidazo[1,2-a]pyrazin-6-yl)-5-(4-fluorophenyl)-5-methyl-5H-pyrrolo[2,3-d]pyrimidin-6(7H)-one], the Emax came out at 90% and the EC50 is 504 nM.

Take `CC1(c2ccc(F)cc2)C(=O)Nc2nc(-c3cn4c(CCC5CCCCC5)cnc4cn3)nc(N)c21` (centres unmarked) [Example 261A, 4-Amino-2-(3-(2-cyclohexylethyl)imidazo[1,2-a]pyrazin-6-yl)-5-(4-fluorophenyl)-5-methyl-5H-pyrrolo[2,3-d]pyrimidin-6(7H)-one]: the Emax was 116% and a half-maximal effect (EC50) was put at 822 nM.
